From patent publication US20070218486A1, “Immunoassays, Haptens, Immunogens and Antibodies for Anti-HIV Therapeutics” (Ark Diagnostics, Inc., priority 2006, published 2007)
Where a name gives a salt, the structure may show the parent alone. Read-outs that look alike come from different tables or passages of the source.

How the values were obtained:
[1] = system: primary hepatocyte; conditions: human; cited from earlier work
[2] = system: primary hepatocyte; conditions: rat; cited from earlier work
[3] = rats; cited from earlier work
[4] = system: primary hepatocyte; conditions: dog; cited from earlier work
[5] = dogs; cited from earlier work
[6] = system: Anti-(H12)2; assay: Specificity of the immunoassay (cross-reactivity in human serum); assay type: binding, rabbit; conditions: 10 μg/mL of crossreactant plus 5 μg/mL of tipranavir in human serum
Procedure: Also antibody Anti-(H12)2 was used in this Example as part of an antibody reagent (“Anti-(H12)2 Antibody Reagent”) further comprising nicotinamide adenine dinucleotide, glucose-6-phosphate, sodium chloride, bulking agent, surfactant, and preservatives.
An immunoassay for tipranavir was conducted on the Cobas Mira Chemistry Analyzer (Roche). On the analyzer, 4 μL of sample plus 61 μL water were incubated for 300 sec with 150 μL of Anti-(H12)2 Antibody Reagent. […] After 25 sec incubation, enzyme activity was monitored by following the production of NADH spectrophotometrically at 340 nm for 50 sec.
Testing was performed on the Cobas Mira analyzer. The percentage concentration above 5 μg/mL of tipranavir was calculated for each crossreactant.

[7] = cited from earlier work
[8] = cited from earlier work; remark: listed apart in the source
[9] = target: T1, mammalian DNA polymerases α (Homo sapiens, UniProt P09884); conditions: cited from earlier work
T1 sequence (P09884 1-1462): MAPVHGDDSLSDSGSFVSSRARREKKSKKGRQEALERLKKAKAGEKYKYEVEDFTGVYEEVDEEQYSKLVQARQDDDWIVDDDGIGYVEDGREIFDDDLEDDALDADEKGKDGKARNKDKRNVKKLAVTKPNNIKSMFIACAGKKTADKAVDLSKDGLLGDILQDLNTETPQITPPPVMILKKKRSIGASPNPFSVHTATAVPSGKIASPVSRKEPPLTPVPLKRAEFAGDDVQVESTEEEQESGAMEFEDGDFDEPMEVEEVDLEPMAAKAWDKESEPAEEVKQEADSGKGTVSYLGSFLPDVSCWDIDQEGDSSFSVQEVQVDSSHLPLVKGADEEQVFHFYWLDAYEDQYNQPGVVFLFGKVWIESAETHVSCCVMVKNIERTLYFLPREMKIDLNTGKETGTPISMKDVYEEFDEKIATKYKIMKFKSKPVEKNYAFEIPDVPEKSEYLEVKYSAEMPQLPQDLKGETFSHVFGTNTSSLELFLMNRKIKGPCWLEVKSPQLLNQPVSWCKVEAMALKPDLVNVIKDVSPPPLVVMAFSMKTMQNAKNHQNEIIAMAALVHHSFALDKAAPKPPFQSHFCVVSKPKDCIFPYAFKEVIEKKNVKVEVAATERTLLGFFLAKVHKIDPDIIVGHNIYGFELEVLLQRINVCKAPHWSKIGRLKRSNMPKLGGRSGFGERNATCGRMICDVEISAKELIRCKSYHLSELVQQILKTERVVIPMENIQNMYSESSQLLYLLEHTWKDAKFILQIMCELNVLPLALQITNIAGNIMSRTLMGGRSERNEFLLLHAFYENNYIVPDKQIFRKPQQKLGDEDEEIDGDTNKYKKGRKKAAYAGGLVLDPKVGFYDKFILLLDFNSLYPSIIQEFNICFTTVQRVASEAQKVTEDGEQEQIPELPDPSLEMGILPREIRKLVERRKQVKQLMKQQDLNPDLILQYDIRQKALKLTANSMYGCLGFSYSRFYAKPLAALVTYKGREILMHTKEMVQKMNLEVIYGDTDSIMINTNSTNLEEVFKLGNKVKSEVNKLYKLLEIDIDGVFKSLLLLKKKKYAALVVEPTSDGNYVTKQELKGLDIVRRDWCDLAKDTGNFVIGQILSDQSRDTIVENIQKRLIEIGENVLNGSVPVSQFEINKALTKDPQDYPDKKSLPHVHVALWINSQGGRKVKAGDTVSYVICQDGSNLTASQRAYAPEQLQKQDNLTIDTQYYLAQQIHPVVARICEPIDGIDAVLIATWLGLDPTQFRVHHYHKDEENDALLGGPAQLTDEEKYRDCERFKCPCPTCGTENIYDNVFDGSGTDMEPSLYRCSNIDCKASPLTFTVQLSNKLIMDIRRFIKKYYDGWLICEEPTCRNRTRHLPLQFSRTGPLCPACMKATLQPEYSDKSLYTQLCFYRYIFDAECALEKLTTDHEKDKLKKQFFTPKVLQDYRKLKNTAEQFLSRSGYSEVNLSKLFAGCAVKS

[10] = target: T2, mitochondrial DNA polymerase γ (Homo sapiens, UniProt P54098); conditions: cited from earlier work
T2 sequence (P54098 1-1239): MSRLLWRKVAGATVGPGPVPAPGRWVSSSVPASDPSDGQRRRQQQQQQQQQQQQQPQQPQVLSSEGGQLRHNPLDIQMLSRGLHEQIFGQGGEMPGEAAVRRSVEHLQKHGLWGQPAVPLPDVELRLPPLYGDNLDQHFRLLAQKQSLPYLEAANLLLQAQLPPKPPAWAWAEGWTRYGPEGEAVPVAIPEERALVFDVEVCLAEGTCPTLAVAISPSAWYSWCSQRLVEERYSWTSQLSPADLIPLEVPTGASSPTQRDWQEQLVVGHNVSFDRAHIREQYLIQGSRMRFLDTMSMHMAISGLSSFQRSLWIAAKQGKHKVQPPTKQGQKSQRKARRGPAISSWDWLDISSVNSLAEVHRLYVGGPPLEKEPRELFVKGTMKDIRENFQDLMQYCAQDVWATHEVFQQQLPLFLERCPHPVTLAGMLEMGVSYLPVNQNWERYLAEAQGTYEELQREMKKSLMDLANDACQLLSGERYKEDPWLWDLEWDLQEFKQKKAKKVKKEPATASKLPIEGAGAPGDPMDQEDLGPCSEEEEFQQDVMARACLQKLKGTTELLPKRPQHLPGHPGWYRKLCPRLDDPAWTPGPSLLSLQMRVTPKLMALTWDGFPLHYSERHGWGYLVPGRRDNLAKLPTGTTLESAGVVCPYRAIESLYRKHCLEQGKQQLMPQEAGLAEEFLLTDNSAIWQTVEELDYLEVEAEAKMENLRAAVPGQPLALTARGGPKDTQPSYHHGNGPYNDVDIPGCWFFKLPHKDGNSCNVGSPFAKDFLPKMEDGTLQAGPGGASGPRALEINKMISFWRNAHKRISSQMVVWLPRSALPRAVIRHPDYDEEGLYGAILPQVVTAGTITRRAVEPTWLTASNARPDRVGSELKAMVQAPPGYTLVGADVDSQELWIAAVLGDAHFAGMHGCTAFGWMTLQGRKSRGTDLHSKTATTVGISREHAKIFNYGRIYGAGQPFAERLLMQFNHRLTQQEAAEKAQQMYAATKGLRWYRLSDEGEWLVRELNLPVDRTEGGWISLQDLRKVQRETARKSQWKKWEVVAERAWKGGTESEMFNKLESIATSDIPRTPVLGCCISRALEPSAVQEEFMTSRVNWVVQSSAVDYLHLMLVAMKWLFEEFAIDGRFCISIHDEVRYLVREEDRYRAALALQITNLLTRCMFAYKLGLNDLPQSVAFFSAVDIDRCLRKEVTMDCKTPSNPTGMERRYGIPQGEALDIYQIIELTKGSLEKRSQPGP

[11] = target: mammalian DNA polymerases β (Homo sapiens, UniProt P06746); conditions: cited from earlier work
[12] = system: CYP450 enzymes; conditions: in vitro; cited from earlier work

CCC[C@@]1(CCc2ccccc2)CC(O)=C([C@H](CC)c2cccc(NS(=O)(=O)c3ccc(C(F)(F)F)cn3)c2)C(=O)O1 [Tipranavir]
stability in primary hepatocyte incubations [1]: stable
stability in primary hepatocyte incubations [2]: stable
plasma metabolic profile [3]: only the parent drug
stability in primary hepatocyte incubations [4]: stable
plasma metabolic profile [5]: only the parent drug

CC(C)(C)NC(=O)[C@@H]1CN(Cc2cccnc2)CCN1C[C@@H](O)C[C@@H](Cc1ccccc1)C(=O)N[C@H]1c2ccccc2C[C@H]1O [Indinavir]
Percent Increase in Apparent Tipranavir [6]: 0%

CC(C)(C)NC(=O)[C@@H]1C[C@@H]2CCCC[C@@H]2CN1C[C@@H](O)[C@H](Cc1ccccc1)NC(=O)[C@H](CC(N)=O)NC(=O)c1ccc2ccccc2n1 [Saquinavir]
Percent Increase in Apparent Tipranavir [6]: 0%

CC(C)c1nc(CN(C)C(=O)N[C@H](C(=O)N[C@@H](Cc2ccccc2)C[C@H](O)[C@H](Cc2ccccc2)NC(=O)OCc2cncs2)C(C)C)cs1 [Ritonavir]
Percent Increase in Apparent Tipranavir [6]: 0%

CC(C)OC(=O)OCOP(=O)(CO[C@H](C)Cn1cnc2c(N)ncnc21)OCOC(=O)OC(C)C [Tenofovir disoproxil fumarate]
administered dose recovered in urine ([7]; multiple oral doses 300 mg once daily (under fed conditions), over 24 hours): 32±10%

CC(C)CN(C[C@@H](O)[C@H](Cc1ccccc1)NC(=O)O[C@H]1CCOC1)S(=O)(=O)c1ccc(N)cc1 [Amprenavir]
Percent Increase in Apparent Tipranavir [6]: 0%

2′-deoxy-3′-thiacytidine [Lamivudine]
absolute bioavailability ([8]; adults): approximately 82%
absolute bioavailability ([8]; children): ~68%
time to maximum serum concentrations after the dose ([8]; oral administration): 0.5 to 1.5 h
oral dose eliminated renally as unchanged drug ([8]; oral dose): approximately 70%
secretion into breast milk ([8]; postpartum women): secreted into breast milk
placental transfer ([8]; pregnant women): diffuses freely across the placenta
systemic exposure (AUC) when administered with food ([8]; with food): not altered
Percent Increase in Apparent Tipranavir [6]: 0%

CC(Cn1cnc2c(N)ncnc21)OCP(=O)(O)OP(=O)(O)OP(=O)(O)O (stereo in doubt) [Tenofovir diphosphate]
inhibition of DNA polymerase α [9]: weak inhibitor
inhibition of mitochondrial DNA polymerase γ [10]: weak inhibitor
inhibition of DNA polymerase β [11]: weak inhibitor

Cc1c(O)cccc1C(=O)N[C@@H](CSc1ccccc1)[C@H](O)CN1C[C@H]2CCCC[C@H]2C[C@H]1C(=O)NC(C)(C)C [Nelfinavir]
Percent Increase in Apparent Tipranavir [6]: 0%

Tenofovir
dose recovered in the urine as unchanged tenofovir ([7]; IV administration, within 72 hours of dosing): 70-80%
terminal elimination half-life ([7]; single dose, oral administration of Tenofovir disoproxil fumarate): approximately 17 hours
substrate of CYP450 enzymes [12]: neither tenofovir disoproxil nor tenofovir are substrates of CYP450 enzymes

CC(C)OC(=O)OCOP(=O)(CO[C@H](C)Cn1cnc2c(N)ncnc21)OCOC(=O)OC(C)C [tenofovir disoproxil]
substrate of CYP450 enzymes [12]: neither tenofovir disoproxil nor tenofovir are substrates of CYP450 enzymes

Cc1cccc(C)c1OCC(=O)N[C@@H](Cc1ccccc1)[C@@H](O)C[C@H](Cc1ccccc1)NC(=O)[C@H](C(C)C)N1CCCNC1=O [Lopinavir]
Percent Increase in Apparent Tipranavir [6]: 0%

O=C1Nc2ccc(Cl)cc2[C@@](C#CC2CC2)(C(F)(F)F)O1 [Efavirenz]
Percent Increase in Apparent Tipranavir [6]: 0%
